Drawing on PubChem BioAssay (NCI), this text covers GI50 and TGI for 7 compounds.

Test in all cases: DTP human tumour cell line panel, 48 h
In experiment [1] the test system is HCT-116 colon.
Experiment [2] concerns UACC-257 melanoma.
In experiment [3] the test system is HL-60(TB) leukemia.
Experiment [4] has as its system HCT-15 colon.
For experiment [5], the system named is SK-OV-3 ovarian.
In experiment [6] the test system is NCI-H226 lung.
Experiment [7] relates to MDA-MB-231 breast.
Experiment [8] has as its system LOX IMVI melanoma.
The subject of experiment [9] is EKVX NSCLC.
The test system of experiment [10] is OVCAR-4 ovarian.

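The compound was tested at five concentrations on cells cultured in 96-well plates, with a 48-hour exposure period. Here, GI50 denotes the concentration required for 50% inhibition of growth. At the TGI there is no net growth.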

Turning to `COC(=O)/C=C1\SC(=Nc2ccc(C(F)(F)F)cc2)N(CCc2c[nH]c3ccccc23)C1=O`, the GI50 – broadly, the concentration giving 50% growth inhibition – in experiment [1] is 1.21 µM; in experiment [2], 1.67 µM; in experiment [3], 1.23 µM; in [4] it was 1.38 µM; in experiment [5] it was 2.05 µM; in [6], 1.87 µM. For the same compound, the GI50 was 1.5 µM in experiment [7], 1.49 µM in [8], 1.86 µM in experiment [9] and 1.61 µM in experiment [10]. Besides, the TGI – broadly, the concentration at which net growth stops – in [1] turned out to be 2.47 µM; in experiment [2] it was 3.18 µM; in experiment [3] it was 3.98 µM; in [4], 2.95 µM; in [5], 4.06 µM; in experiment [6], 3.62 µM. The TGI is 2.87 µM in [7], 2.81 µM in experiment [8], 3.81 µM in experiment [9] and 3.05 µM in experiment [10].

`O=C(CSc1nc2ccc([N+](=O)[O-])cc2[nH]1)Nc1cccc(C(F)(F)F)c1`: the GI50 in experiment [1] was 2.69 µM; in experiment [2], 1.33 µM; in experiment [3], 2.57 µM; in experiment [4], 2.74 µM; in experiment [5] it was 1.66 µM; in [6], 1.69 µM. Besides, the GI50 in experiment [7] was 2.13 µM; in experiment [8], 2.95 µM; in [9] it was 1.84 µM; in experiment [10], 1.61 µM. Further, the TGI in experiment [1] came out at 12.1 µM; in experiment [2], 6.63 µM; in experiment [3] it was 8.33 µM; in experiment [4], 12.7 µM; in [5], 5.86 µM; in [6] it was 9.27 µM. The TGI was 6.65 µM in experiment [7], 13 µM in experiment [8], 9.94 µM in experiment [9] and 14.5 µM in [10].

Turning to `O=C1C(Cl)=C(Oc2ccccc2)C(=O)c2ccccc21`, the GI50 was 1.82 µM in [1]; 4.65 µM in [2]; 2.54 µM in experiment [3]; 12.1 µM in experiment [4]; 6.51 µM in [5]; 12.1 µM in experiment [6]. Also, the GI50 is 6.51 µM in [7], 9.98 µM in experiment [8], 4.77 µM in experiment [9] and 2.58 µM in [10]. Further, the concentration for total growth inhibition (TGI) turned out to be 3.41 µM in [1]; 14.1 µM in [2]; 17.7 µM in experiment [3]; 31.5 µM in experiment [4]; 23.6 µM in [5]; 28.7 µM in [6]. Further, the total growth inhibition concentration (TGI) in experiment [7] worked out at 21.1 µM; in experiment [8], 22.7 µM; in [9], 24 µM; in experiment [10], 7.22 µM.

Consider `NCCCn1c2c(c3ccccc3c1=O)C(=O)c1cc3c(cc1-2)OCO3`, for which the GI50 in [1] is 0.213 µM; in experiment [2], 1.95 µM; in experiment [3], 0.117 µM; in experiment [4], 0.101 µM; in experiment [5], 1.93 µM; in [6], 0.514 µM. Moreover, the values for the GI50 in experiment [7], in experiment [8] and in experiment [9] were 0.72 µM, 0.247 µM and 1.23 µM, respectively. The concentration for total growth inhibition (TGI) was determined as 12.6 µM in experiment [2]; 0.882 µM in experiment [4]; 13 µM in [5]; 3.48 µM in [6]; 4.54 µM in experiment [7]; 3.57 µM in experiment [8]. Further, the total growth inhibition concentration (TGI) in [9] stood at 4.79 µM.

For the compound `c1ccc(Oc2c3ccccc3nc3ccccc23)cc1`, the GI50 in experiment [1] is 0.714 µM; in experiment [2] it was 9.59 µM; in experiment [3] it was 0.541 µM; in [4], 3.06 µM; in [5], 4.34 µM; in [6] it was 6.89 µM. Also, the GI50 was 3.08 µM in experiment [7], 1.73 µM in [8], 4.43 µM in experiment [9] and 4.33 µM in [10]. In addition, the TGI is 3.13 µM in experiment [1]; 26.3 µM in experiment [2]; 5.79 µM in experiment [3]; 12.3 µM in experiment [4]; 21 µM in experiment [5]; 27.1 µM in experiment [6]. In addition, the concentration for total growth inhibition (TGI) in experiment [7] stood at 9.82 µM; in [8], 11.8 µM; in experiment [9], 20.9 µM; in [10], 21.2 µM.

Regarding `COc1ccc(-c2nc3sccn3c2/C=C/C(=O)c2cc(OC)c(OC)c(OC)c2)cc1OC`, the GI50 in [1] is 2.31 µM; in experiment [2], 2.65 µM; in [3], 1.84 µM; in experiment [4], 3.24 µM; in [5], 2.9 µM; in [6] it was 2.16 µM. The GI50 was 2.87 µM in [7], 2.6 µM in experiment [8], 3.92 µM in experiment [9] and 2.85 µM in experiment [10]. Further, the TGI was 6.44 µM in experiment [1]; 7.17 µM in experiment [2]; 4.98 µM in experiment [3]; over 100 µM in experiment [4]; 8.07 µM in experiment [5]; 9.84 µM in experiment [6]. The TGI is 27.7 µM in [7], 10 µM in [8], over 100 µM in experiment [9] and 77.2 µM in [10].

On to `Cc1ccc(C)c(-n2c(-c3ccc(Br)cc3)csc2=NC(=O)c2ccccc2F)c1`, for which the GI50 in [1] was 3.1 µM; in experiment [2] it was over 100 µM; in experiment [3], 2.82 µM; in experiment [4], over 100 µM; in experiment [5], over 100 µM; in experiment [6] it was over 100 µM. Moreover, the GI50 in experiment [7] was over 100 µM; in [8] it was over 100 µM; in experiment [9] it was over 100 µM; in [10], 9.57 µM. Further, the TGI in [1], in [2], in experiment [3], in experiment [4], in [5] and in experiment [6] was over 100 µM throughout. For the same compound, the TGI in experiment [7], in [8], in [9] and in [10] was over 100 µM in each case.
